# Measured values: patent US8022203B2, “Amino derivatives of beta-homoandrostanes and beta-heteroandrostanes” (Sigma-Tau Industrie Farmaceutiche Riunite S.p.A., priority 2006, dated 2011)
# Where a name gives a salt, the structure may show the parent alone. Read-outs that look alike come from different tables or passages of the source.
# Columns and labels:
# anesthetized guinea-pig = assay: Inotropic effect and lethal dose, slow intravenous infusion in anesthetized guinea-pig; settings: for % decrease from Emax after 20 min from the end of the infusion: 20 minutes after the end of the infusion; for Lethal dose/ED80: calculated in the died animals; for Maximum dose infused: in the survived animals; for Dead/treated / ED80 (dose increasing +dP/dTmax by 80%) / EDmax (dose inducing maximum positive inotropic effect) / Emax % increase in +dP/dTmax: slow intravenous infusion over 90 minutes; for safety ratio compared with reference cardiotonics / duration of the inotropic effect: in words; for duration of the inotropic effect: after stopping the infusion
# Na^+,K^+-ATPase = Na^+,K^+-ATPase (Canis lupus familiaris, UniProt P50997); assay: Dog kidney Na+,K+-ATPase inhibition (hydrolysis of 32P-ATP); type: biochemical
# [1] = test system: spontaneous hypertensive rats of the Milan (MHS); assay: Systolic blood pressure fall in spontaneous hypertensive rats (MHS), tail-cuff; type: in vivo, rat; settings: five weeks, vs vehicle control
# [2] = dog kidney enzyme, read-out: Na^+,K^+-ATPase Inhibition IC50
# [3] = Na^+,K^+-ATPase Inhibition IC50
smiles,measurement,setting,value
"C[C@]12CCC(=NOCCN)CC1C(=O)C[C@@H]1[C@@H]2CC[C@]2(C)C(=O)CC[C@@H]12.Cl (mixture of isomers) [Compd. 22b, (EZ) 3-(2-aminoethoxyimino)androstane-6,17-dione hydrochloride, reference compound]",% decrease from Emax after 20 min from the end of the infusion,anesthetized guinea-pig,100%
same,Lethal dose/ED80,anesthetized guinea-pig,22.6
same,Maximum dose infused,anesthetized guinea-pig,32.1 µmol/kg
same,Dead/treated,anesthetized guinea-pig,7/8
same,ED80 (dose increasing +dP/dTmax by 80%),anesthetized guinea-pig,1.82 µmol/kg
same,EDmax (dose inducing maximum positive inotropic effect),anesthetized guinea-pig,5.74 µmol/kg
same,Emax % increase in +dP/dTmax,anesthetized guinea-pig,182%
same,IC50,"Na^+,K^+-ATPase; [2]",330 nM
same,SBP - %,[1]; 10 μg/kg/os daily,2.2%
same,SBP - mm Hg (decrease in systolic blood pressure),[1]; 10 μg/kg/os daily,3.6 +/− 4.8 mm Hg
same,SBP - %,[1]; 100 μg/kg/os daily,6.6%
same,SBP - mm Hg (decrease in systolic blood pressure),[1]; 100 μg/kg/os daily,10.7 +/− 7.5 mm Hg
"CNCCCON=C1CCC2(C)C(C1)NC(=O)CC1C3CCC(=O)C3(C)CCC12 (stereo not shown) [I-ac, (E,Z) 3-(3-N-Methylaminopropoxyimino)-6-aza-7a-homoandrostane-7,17-dione fumarate]",IC50,"Na^+,K^+-ATPase; [2]",19000 nM
same,SBP - %,[1]; 10 μg/kg/os daily,4.2%
same,SBP - mm Hg (decrease in systolic blood pressure),[1]; 10 μg/kg/os daily,7.2 +/− 0.7 mm Hg
"CC12CCC3C(CC(=O)NC4CC(=NOC5CCNC5)CCC43C)C1CCC2=O [I-ad, (E,Z) 3-[3-(R)-Pyrrolidinyl]oxyimino-6-aza-7a-homoandrostane-7,17-dione fumarate]",IC50,"Na^+,K^+-ATPase; [3]",950 nM
"CC12CCC3C(CC(=S)NC4CC(=NOCCN)CCC43C)C1CCC2=O (stereo not shown) [I-aj, (E,Z) 3-(2-Aminoethoxyimino)-6-aza-7a-homo-7-thioxoandrostane-17-one hydrochloride]",IC50,"Na^+,K^+-ATPase; [2]",6500 nM
"CC12CCC3C(CCNC4CC(=NOCCN)CCC43C)C1CCC2=O (stereo not shown) [I-ak, (E,Z)—3-(2-Aminoethoxyimino)-6-aza-7a-homoandrostane-17-one dihydrochloride]",IC50,"Na^+,K^+-ATPase; [2]",29000 nM
"CC12CCC3C(CCNC4CC(=NOC5CCNC5)CCC43C)C1CCC2=O [I-am, (E,Z) 3-[3-(R)-Pyrrolidinyl]oxyimino-6-aza-7a-homoandrostane-17-one dihydrochloride]",IC50,"Na^+,K^+-ATPase; [3]",9500 nM
"CC12CCC3C(CCN(C=O)C4CC(=NOCCN)CCC34C)C1CCC2=O (stereo not shown) [I-an, (E,Z) 3-(2-Aminoethoxyimino)-6-aza-6-formyl-7a-homoandrostane-17-one hydrochloride]",IC50,"Na^+,K^+-ATPase; [2]",23000 nM
"CON=C1CC2C3CCC(=O)C3(C)CCC2C2(C)CCC(=NOCCN)CC2N1 (stereo not shown) [I-at, (E,Z) 3-(2-Aminoethoxyimino)-6-aza-7a-homo-7-(Z)-methoxyimino-androstane-17-one hydrochloride]",IC50,"Na^+,K^+-ATPase; [2]",48000 nM
"CON=C1CC2C3CCC(=O)C3(C)CCC2C2(C)CCC(=NOC3CCNC3)CC2N1 [I-au, 3-(E,Z)-[3-(R)-Pyrrolidinyl]oxyimino-6-aza-7a-homo-7-(Z)-methoxyimino-androstane-17-one hydrochloride]",IC50,"Na^+,K^+-ATPase; [3]",68000 nM
"CC12CCC3C(NC(=O)CC4CC(=NOCCN)CCC43C)C1CCC2=O (stereo not shown) [I-av, (E,Z) 3-(2-Aminoethoxyimino)-7a-aza-7a-homoandrostane-7,17-dione hydrochloride]",IC50,"Na^+,K^+-ATPase; [2]",27000 nM
"CNCCCON=C1CCC2(C)C(CC(=O)NC3C4CCC(=O)C4(C)CCC32)C1 (stereo not shown) [I-aw, (E,Z) 3-(3-N-Methylaminopropoxyimino)-7a-aza-7a-homoandrostane-7,17-dione hydrochloride]",IC50,"Na^+,K^+-ATPase; [2]",9900 nM
"CC12CCC3C(NC(=O)CC4CC(=NOC5CCNC5)CCC43C)C1CCC2=O [I-ax, (E,Z) 3-[3-(R)-Pyrrolidinyl]oxyimino-7a-aza-7a-homoandrostane-7,17-dione hydrochloride]",IC50,"Na^+,K^+-ATPase; [3]",4800 nM
"CC12CCC3C(NCCC4CC(=NOCCN)CCC43C)C1CCC2=O (stereo not shown) [I-ay, (E,Z) 3-(2-Aminoethoxyimino)-7a-aza-7a-homoandrostane-17-one difumarate]",IC50,"Na^+,K^+-ATPase; [2]",400 nM
"CNCCCON=C1CCC2(C)C(CCNC3C4CCC(=O)C4(C)CCC32)C1 (stereo not shown) [I-az, (E,Z) 3-(3-N-Methylaminopropoxyimino)-7a-aza-7a-homoandrostane-17-one difumarate]",IC50,"Na^+,K^+-ATPase; [2]",1800 nM
"CC12CCC3C(NCCC4CC(=NOC5CCNC5)CCC43C)C1CCC2=O [I-ba, (E,Z) 3-[3-(R)-Pyrrolidinyl]oxyimino-7a-aza-7a-homoandrostane-17-one Difumarate]",% decrease from Emax after 20 min from the end of the infusion,anesthetized guinea-pig,55%
same,Maximum dose infused,anesthetized guinea-pig,50.0 µmol/kg
same,safety ratio compared with reference cardiotonics,anesthetized guinea-pig,higher safety ratios than those displayed by digitoxin and compd 22b
same,duration of the inotropic effect,anesthetized guinea-pig,prolonged action
same,Dead/treated,anesthetized guinea-pig,0/3
same,ED80 (dose increasing +dP/dTmax by 80%),anesthetized guinea-pig,1.68 µmol/kg
same,EDmax (dose inducing maximum positive inotropic effect),anesthetized guinea-pig,10.1 µmol/kg
same,Emax % increase in +dP/dTmax,anesthetized guinea-pig,218%
same,IC50,"Na^+,K^+-ATPase; [3]",140 nM
"CC12CCC3C(C1CCC2=O)N(C=O)CCC1CC(=NOC2CCNC2)CCC13C [I-bd, (E,Z) 3-[3-(R)-Pyrrolidinyl]oxyimino-7a-aza-7a-formyl-7a-homoandrostane-17-one hydrochloride]",IC50,"Na^+,K^+-ATPase; [2]",57000 nM
"CC12CCC3C(COC(=O)C4CC(=NOCCN)CCC43C)C1CCC2=O (stereo not shown) [I-be, (E,Z) 3-(2-Aminoethoxyimino)-7-oxa-7a-homoandrostane-6,17-dione hydrochloride]",IC50,"Na^+,K^+-ATPase; [3]",1600 nM
"CNCCCON=C1CCC2(C)C(C1)C(=O)OCC1C3CCC(=O)C3(C)CCC12 (stereo not shown) [I-bf, (E,Z)-3-(3-N-Methylaminopropoxyimino)-7-oxa-7a-homoandrostane-6,17-dione hydrochloride]",IC50,"Na^+,K^+-ATPase; [3]",1900 nM
"CC12CCC3C(COC(=O)C4CC(=NOC5CCNC5)CCC43C)C1CCC2=O [I-bg, (E,Z) 3-[3-(R)-Pyrrolidinyl]oxyimino-7-oxa-7a-homoandrostane-6,17-dione hydrochloride]",IC50,"Na^+,K^+-ATPase; [3]",810 nM
"CC12CCC3C(CC(=O)OC4CC(=NOCCN)CCC43C)C1CCC2=O (stereo not shown) [I-bh, (E,Z) 3-(2-Aminoethoxyimino)-6-oxa-7a-homoandrostane-7,17-dione fumarate]",IC50,"Na^+,K^+-ATPase; [2]",240 nM
"CC12CCC3C(OC(=O)CC4CC(=NOCCN)CCC43C)C1CCC2=O (stereo not shown) [I-bi, (E,Z) 3-(2-Aminoethoxyimino)-7a-oxa-7a-homoandrostane-7,17-dione hydrochloride]",IC50,"Na^+,K^+-ATPase; [2]",850 nM
"CNCCCON=C1CCC2(C)C(CC(=O)OC3C4CCC(=O)C4(C)CCC32)C1 (stereo not shown) [I-bj, (E,Z) 3-(3-N-Methylaminopropoxyimino)-7a-oxa-7a-homoandrostane-7,17-dione hydrochloride]",IC50,"Na^+,K^+-ATPase; [3]",2200 nM
"CC12CCC3C(OC(=O)CC4CC(=NOC5CCNC5)CCC43C)C1CCC2=O [I-bk, (E,Z) 3-[3-(R)-Pyrrolidinyl]oxyimino-7a-oxa-7a-homoandrostane-7,17-dione hydrochloride]",% decrease from Emax after 20 min from the end of the infusion,anesthetized guinea-pig,50%
same,Maximum dose infused,anesthetized guinea-pig,25.3 µmol/kg
same,safety ratio compared with reference cardiotonics,anesthetized guinea-pig,higher safety ratios than those displayed by digitoxin and compd 22b
same,duration of the inotropic effect,anesthetized guinea-pig,prolonged action
same,Dead/treated,anesthetized guinea-pig,0/3
same,ED80 (dose increasing +dP/dTmax by 80%),anesthetized guinea-pig,2.11 µmol/kg
same,EDmax (dose inducing maximum positive inotropic effect),anesthetized guinea-pig,23.9 µmol/kg
same,Emax % increase in +dP/dTmax,anesthetized guinea-pig,254%
same,IC50,"Na^+,K^+-ATPase; [3]",360 nM
"CC12CCC3C(C(=O)OC4CC(=NOCCN)CCC43C)C1CCC2=O (stereo not drawn) [I-bl, (E,Z) 3-(2-Aminoethoxyimino)-6-oxa-5β-androstane-7,17-dione hydrochloride]",IC50,"Na^+,K^+-ATPase; [2]",2500 nM
"CC12CCC3C(CC(=O)NC4CC(=NOCCN)CCC43C)C1CCC2=O (stereo not shown) [I-bm, (E) 3-(2-Aminoethoxyimino)-6-aza-7a-homoandrostane-7,17-dione fumarate]",IC50,"Na^+,K^+-ATPase; [3]",25000 nM
"CC12CCC3C(CC(=O)NC4CC(=NOCCN)CCC43C)C1CCC2=O (stereo not shown) [I-bn, (Z) 3-(2-Aminoethoxyimino)-6-aza-7a-homoandrostane-7,17-dione fumarate]",IC50,"Na^+,K^+-ATPase; [3]",61000 nM
"CC12CCC3C(CCCC4CC(=NOCCN)CCC43C)C1CCC2=O (stereo not shown) [I-bo, (E,Z) 3-(2-Aminoethoxyimino)-B-homoandrostane-17-one hydrochloride]",IC50,"Na^+,K^+-ATPase; [3]",71 nM
"CC12CCC3C(CCCC4CC(=NOC5CCNC5)CCC43C)C1CCC2=O [I-bp, (E,Z)-3-[3-(R)-Pyrrolidinyl]oxyimino-B-homoandrostane-17-one hydrochloride]",IC50,"Na^+,K^+-ATPase; [3]",40 nM
"CNCCCON=C1CCC2(C)C(C1)OC(=O)CC1C3CCC(=O)C3(C)CCC12 (stereo not shown) [I-bq, (E,Z)-3-(3-N-Methylaminopropoxyimino)-6-oxa-7a-homoandrostane-7,17-dione fumarate]",IC50,"Na^+,K^+-ATPase; [3]",3700 nM
"CC12CCC3C(CC(=O)OC4CC(=NOC5CCNC5)CCC43C)C1CCC2=O [I-br, (E,Z) 3-[3-(R)-Pyrrolidinyl]oxyimino-6-oxa-7a-homoandrostane-7,17-dione fumarate]",IC50,"Na^+,K^+-ATPase; [3]",1300 nM
"CC12CCC3C(CCOC4CC(=NOCCN)CCC43C)C1CCC2=O (stereo not shown) [I-bs, (E,Z)-3-(2-Aminoethoxyimino)-6-oxa-7a-homoandrostane-17-one hydrochloride]",IC50,"Na^+,K^+-ATPase; [2]",130 nM
"CC12CCC3C(OCCC4CC(=NOCCN)CCC43C)C1CCC2=O (stereo not shown) [I-bt, (E,Z)-3-(2-Aminoethoxyimino)-7a-oxa-7a-homoandrostane-17-one hydrochloride]",IC50,"Na^+,K^+-ATPase; [2]",160 nM
"CC12CCC3C(C(=O)NC4CC(=NOCCN)CCC43C)C1CCC2=O (stereo not shown) [I-bu, (E,Z) 3-(2-Aminoethoxyimino)-6-azaandrostane-7,17-dione hydrochloride]",IC50,"Na^+,K^+-ATPase; [2]",1100 nM
"CC12CCC3C(C(=O)NC4CC(=NOC5CCNC5)CCC43C)C1CCC2=O [I-bv, (E,Z) 3-[3-(R)-Pyrrolidinyl]oxyimino-6-azaandrostane-7,17-dione fumarate]",IC50,"Na^+,K^+-ATPase; [3]",1400 nM
"C[C@H]1O[C@@H](O[C@H]2[C@@H](O)C[C@H](O[C@H]3[C@@H](O)C[C@H](O[C@H]4CC[C@@]5(C)[C@H](CC[C@@H]6[C@@H]5C[C@@H](O)[C@]5(C)[C@@H](C7=CC(=O)OC7)CC[C@]65O)C4)O[C@@H]3C)O[C@@H]2C)C[C@H](O)[C@@H]1O [digoxin, reference compound]",% decrease from Emax after 20 min from the end of the infusion,anesthetized guinea-pig,100%
same,Lethal dose/ED80,anesthetized guinea-pig,4.0
same,Maximum dose infused,anesthetized guinea-pig,1.16 µmol/kg
same,Dead/treated,anesthetized guinea-pig,10/10
same,ED80 (dose increasing +dP/dTmax by 80%),anesthetized guinea-pig,0.29 µmol/kg
same,EDmax (dose inducing maximum positive inotropic effect),anesthetized guinea-pig,0.65 µmol/kg
same,Emax % increase in +dP/dTmax,anesthetized guinea-pig,158%
